Source: US20140249135A1, “PIM KINASE INHIBITORS AND METHODS OF THEIR USE” (NOVARTIS AG, priority 2007, published 2014)
Read-outs that look alike come from different tables or passages of the source.

How the values were obtained:
Pim1 kinase = Pim1 kinase (Homo sapiens, UniProt P11309); assay: Pim1 ATP depletion assay; format: biochemical; details: Pim1 ATP depletion assay; read-out: IC50 (μM) PIM1;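 note: Luciferase-luciferin luminescence readout of residual ATP after PIM1 transfers phosphate to a peptide substrate, 40 µM ATP added, reaction run to roughly half ATP consumption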
Sequence of Pim1 kinase (P11309 whole entry): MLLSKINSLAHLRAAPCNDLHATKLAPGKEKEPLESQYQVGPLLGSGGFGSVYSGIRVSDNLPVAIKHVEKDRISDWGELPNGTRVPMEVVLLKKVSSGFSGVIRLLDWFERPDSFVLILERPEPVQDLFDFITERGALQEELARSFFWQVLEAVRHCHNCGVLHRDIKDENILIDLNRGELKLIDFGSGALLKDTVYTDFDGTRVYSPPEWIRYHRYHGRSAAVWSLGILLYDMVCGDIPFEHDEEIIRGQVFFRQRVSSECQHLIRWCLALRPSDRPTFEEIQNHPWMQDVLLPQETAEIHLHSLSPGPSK

Pim2 kinase = Pim2 kinase (Homo sapiens, UniProt Q9P1W9); assay: Pim2 ATP depletion assay; format: biochemical; details: read-out: IC50 (μM) PIM2;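 note: Luciferase-based luminescent readout of ATP remaining after PIM2 phosphorylates a BAD peptide, final 5 nM enzyme, 4 µM ATP, 10 µM peptide, 2.5% DMSO, run to roughly half ATP consumption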
Sequence of Pim2 kinase (Q9P1W9 whole entry): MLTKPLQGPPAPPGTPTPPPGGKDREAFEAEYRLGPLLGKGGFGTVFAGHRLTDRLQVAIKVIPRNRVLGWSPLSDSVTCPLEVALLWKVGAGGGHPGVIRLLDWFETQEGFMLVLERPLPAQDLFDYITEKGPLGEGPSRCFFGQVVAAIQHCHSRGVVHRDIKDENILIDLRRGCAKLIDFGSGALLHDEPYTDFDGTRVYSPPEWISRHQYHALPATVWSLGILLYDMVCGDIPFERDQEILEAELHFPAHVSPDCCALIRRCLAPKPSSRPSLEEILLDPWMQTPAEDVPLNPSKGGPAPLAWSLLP

Pim3 kinase = Pim3 kinase (Homo sapiens, UniProt Q86V86); assay: Pim3 ATP depletion assay; format: biochemical; details: read-out: IC50 (μM) PIM3
HEL 92.1.7 cells = assay: Cell proliferation assay (CellTiter-Glo), HEL 92.1.7; format: cell-based; details: Homo sapiens, read-out: EC50 (μM) HEL 92.1.7
Summary of the method: (§1)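 Cells in RPMI1640 with 10% FBS were seeded at 1000 cells/well and exposed to compound dilutions from DMSO stocks for 3 days at 37 °C. Viability was read by CellTiter-Glo luminescence. EC50 was derived from percent inhibition relative to DMSO-only and control-compound wells.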

MV4-11 cells = assay: Cell proliferation assay (CellTiter-Glo), MV4-11; format: cell-based; details: Homo sapiens
Procedure: HEL 92.1.7 cells (ATTC No. TIB-180, an erythroleukemia line derived from malignant peripheral blood), MV4-11 cells (ATCC No. CRL-9591, a human acute monocytic leukemia line) and PC3 cells (ATCC No. CRL-1435, a human prostatic adenocarcinoma line) were cultured in RPMI1640 supplemented with 10% FBS, sodium pyruvate and antibiotics. Cells were plated in the same medium at a density of 1000 cells per well into 96 well tissue culture plates, with outside wells vacant, on the day of assay. Test compounds supplied in DMSO were diluted into DMSO at 500 times the desired final concentrations before dilution into culture media to 2 times final concentrations. Equal volumes of 2× compounds were added to the cells in 96 well plates and incubated at 37° C. for 3 days. After 3 days plates were equilibrated to room temperature and equal volume of CellTiter-Glow Reagent (Promega) was added to the culture wells. The plates were agitated briefly and luminescent signal was measured with luminometer.

[1] = target: T1, human full length PKCE enzyme (Homo sapiens, UniProt Q02156); assay: In vitro PKCE assay; format: biochemical; details: 10 nM enzyme, 40 uM peptide substrate, 20 uM ATP, KinaseGlo Plus readout; read-out: PKCε IC50
T1 construct: human full length PKCE enzyme purchased from InVitrogen; purchased InVitrogen
T1 sequence (Q02156 1-737): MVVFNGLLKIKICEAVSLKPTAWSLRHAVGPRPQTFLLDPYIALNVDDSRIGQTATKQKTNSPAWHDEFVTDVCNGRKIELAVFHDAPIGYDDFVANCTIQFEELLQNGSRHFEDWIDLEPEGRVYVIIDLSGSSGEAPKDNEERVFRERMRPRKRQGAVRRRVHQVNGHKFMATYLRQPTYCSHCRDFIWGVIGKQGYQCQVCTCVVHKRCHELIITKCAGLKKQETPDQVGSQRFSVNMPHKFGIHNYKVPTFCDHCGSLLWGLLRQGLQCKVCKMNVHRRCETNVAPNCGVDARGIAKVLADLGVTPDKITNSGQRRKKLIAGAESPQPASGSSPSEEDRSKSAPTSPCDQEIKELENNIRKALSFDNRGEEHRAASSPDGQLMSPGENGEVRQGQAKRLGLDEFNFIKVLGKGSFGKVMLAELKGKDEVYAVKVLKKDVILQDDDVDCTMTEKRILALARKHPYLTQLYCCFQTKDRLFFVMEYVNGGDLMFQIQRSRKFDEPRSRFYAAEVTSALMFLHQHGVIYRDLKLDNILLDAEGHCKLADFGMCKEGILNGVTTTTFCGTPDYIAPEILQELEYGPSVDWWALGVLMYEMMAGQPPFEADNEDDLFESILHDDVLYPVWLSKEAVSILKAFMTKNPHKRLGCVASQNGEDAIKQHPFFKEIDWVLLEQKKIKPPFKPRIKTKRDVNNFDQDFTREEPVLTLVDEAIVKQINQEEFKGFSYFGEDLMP

KDR kinase = KDR kinase (Homo sapiens, UniProt P35968); assay: KDR AlphaScreen assay; details: KDR IC50 (μM)
Sequence of KDR kinase (P35968 20-1356): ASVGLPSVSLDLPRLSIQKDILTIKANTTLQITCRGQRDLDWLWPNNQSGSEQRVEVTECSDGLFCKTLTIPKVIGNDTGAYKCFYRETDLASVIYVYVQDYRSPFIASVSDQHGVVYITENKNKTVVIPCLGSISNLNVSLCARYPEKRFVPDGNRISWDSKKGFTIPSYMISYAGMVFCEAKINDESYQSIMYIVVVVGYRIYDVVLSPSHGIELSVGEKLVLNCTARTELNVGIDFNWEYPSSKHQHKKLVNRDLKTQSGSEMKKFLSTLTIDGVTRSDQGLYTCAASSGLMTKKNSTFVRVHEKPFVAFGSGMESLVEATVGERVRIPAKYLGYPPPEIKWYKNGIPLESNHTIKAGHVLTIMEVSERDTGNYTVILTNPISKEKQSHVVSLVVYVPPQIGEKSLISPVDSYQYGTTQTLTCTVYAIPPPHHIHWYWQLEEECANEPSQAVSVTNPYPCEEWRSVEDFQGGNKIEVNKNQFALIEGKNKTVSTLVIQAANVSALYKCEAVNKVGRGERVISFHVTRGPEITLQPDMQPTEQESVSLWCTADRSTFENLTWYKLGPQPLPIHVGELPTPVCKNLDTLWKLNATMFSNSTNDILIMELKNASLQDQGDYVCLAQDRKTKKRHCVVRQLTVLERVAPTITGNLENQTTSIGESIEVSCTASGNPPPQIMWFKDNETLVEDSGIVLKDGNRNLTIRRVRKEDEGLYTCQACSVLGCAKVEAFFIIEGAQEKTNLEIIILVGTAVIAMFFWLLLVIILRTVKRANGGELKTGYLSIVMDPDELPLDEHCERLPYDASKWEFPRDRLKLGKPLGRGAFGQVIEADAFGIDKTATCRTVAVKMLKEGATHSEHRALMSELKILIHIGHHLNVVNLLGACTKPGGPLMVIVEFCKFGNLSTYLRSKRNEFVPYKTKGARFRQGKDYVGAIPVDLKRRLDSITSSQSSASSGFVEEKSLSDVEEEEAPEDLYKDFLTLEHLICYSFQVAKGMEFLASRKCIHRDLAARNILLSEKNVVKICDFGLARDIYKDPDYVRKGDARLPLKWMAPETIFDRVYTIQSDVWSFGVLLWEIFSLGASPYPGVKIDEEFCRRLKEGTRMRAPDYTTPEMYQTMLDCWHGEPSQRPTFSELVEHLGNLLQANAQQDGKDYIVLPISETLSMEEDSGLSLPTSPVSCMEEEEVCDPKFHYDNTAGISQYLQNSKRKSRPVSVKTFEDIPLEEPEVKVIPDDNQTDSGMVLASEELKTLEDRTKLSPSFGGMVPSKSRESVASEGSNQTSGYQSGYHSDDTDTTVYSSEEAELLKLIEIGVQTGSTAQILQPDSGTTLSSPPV

PC3 cells = assay: Cell proliferation assay (CellTiter-Glo), PC3; format: cell-based; details: Homo sapiens, PC-3
Summary of the method: as §1

[2] = tested on: KMS 11 (human myeloma cell line); assay: Cell proliferation assay (CellTiter-Glo), KMS 11; format: cell-based; details: KMS11 cells, read-out: EC50 (μM) KMS11
Procedure: (§2) KMS 11 (human myeloma cell line), were cultured in IMDM supplemented with 10% FBS, sodium pyruvate and antibiotics. Cells were plated in the same medium at a density of 2000 cells per well into 96 well tissue culture plates, with outside wells vacant, on the day of assay. MM1.s (human myeloma cell line), were cultured in RPMI1640 supplemented with 10% FBS, sodium pyruvate and antibiotics. Cells were plated in the same medium at a density of 5000 cells per well into 96 well tissue culture plates, with outside wells vacant, on the day of assay.
(§3) Test compounds supplied in DMSO were diluted into DMSO at 500 times the desired final concentrations before dilution into culture media to 2 times final concentrations. Equal volumes of 2× compounds were added to the cells in 96 well plates and incubated at 37° C. for 3 days.
(§4) After 3 days plates were equilibrated to room temperature and equal volume of CellTiter-Glow Reagent (Promega) was added to the culture wells. The plates were agitated briefly and luminescent signal was measured with luminometer. The percent inhibition of the signal seen in cells treated with DMSO alone vs. cells treated with control compound was calculated and used to determine EC50 values (i.e., the concentration of a test compound that is required to obtain 50% of the maximum effect in the cells) for tested compounds, as shown in Example 763.

[3] = tested on: MM1.s (human myeloma cell line); assay: Cell proliferation assay (CellTiter-Glo), MM1.s; format: cell-based; details: MM1.s cells, read-out: EC50 (μM) MM1.s
Procedure: as §2, §3, §4

Flt3 kinase = target: T2, Flt3 kinase (Homo sapiens, UniProt P36888); assay: Flt3 AlphaScreen assay
T2 sequence (P36888 27-993): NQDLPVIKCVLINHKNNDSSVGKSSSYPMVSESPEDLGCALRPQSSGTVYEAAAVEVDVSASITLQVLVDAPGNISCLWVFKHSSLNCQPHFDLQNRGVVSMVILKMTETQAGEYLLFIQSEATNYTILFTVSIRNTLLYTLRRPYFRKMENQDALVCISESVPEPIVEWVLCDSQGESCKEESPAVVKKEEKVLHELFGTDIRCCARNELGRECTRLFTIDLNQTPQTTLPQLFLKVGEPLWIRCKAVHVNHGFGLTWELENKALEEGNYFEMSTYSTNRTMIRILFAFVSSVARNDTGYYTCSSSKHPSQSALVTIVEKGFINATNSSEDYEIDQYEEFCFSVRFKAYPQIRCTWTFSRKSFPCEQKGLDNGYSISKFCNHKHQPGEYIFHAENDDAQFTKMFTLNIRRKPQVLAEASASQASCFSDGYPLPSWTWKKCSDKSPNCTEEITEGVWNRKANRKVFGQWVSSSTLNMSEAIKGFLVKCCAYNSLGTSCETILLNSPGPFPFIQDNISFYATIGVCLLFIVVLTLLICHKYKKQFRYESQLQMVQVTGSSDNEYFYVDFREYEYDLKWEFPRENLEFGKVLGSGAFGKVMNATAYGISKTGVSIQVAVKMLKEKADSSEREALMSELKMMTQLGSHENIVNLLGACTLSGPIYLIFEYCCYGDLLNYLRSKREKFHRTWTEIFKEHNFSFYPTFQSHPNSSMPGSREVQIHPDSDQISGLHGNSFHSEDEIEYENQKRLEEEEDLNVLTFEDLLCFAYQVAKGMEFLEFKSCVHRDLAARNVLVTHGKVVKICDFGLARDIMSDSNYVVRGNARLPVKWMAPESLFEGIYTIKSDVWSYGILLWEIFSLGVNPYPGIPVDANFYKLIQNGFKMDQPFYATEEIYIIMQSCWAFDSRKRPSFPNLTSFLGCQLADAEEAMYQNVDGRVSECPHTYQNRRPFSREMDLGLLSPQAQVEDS

[4] = cell proliferation, MV4-11 cells, read-out: EC50 (μM) MV-4-11

Row | SMILES | IC50 (Pim1 kinase) [µM] | IC50 (Pim2 kinase) [µM] | IC50 (Pim3 kinase) [µM] | EC50 (MV4-11 cells; [4]) [µM] | IC50 [1] [nM] | IC50 (KDR kinase) [µM] | EC50 (PC3 cells) [µM] | EC50 [2] [µM] | EC50 [3] [µM] | IC50 (Flt3 kinase) [nM] | EC50 (HEL 92.1.7 cells) [µM] | EC50 (MV4-11 cells; MV4-11, read-out: EC50 (μM) MV-4-11) [µM]
1 | Nc1nccnc1C(=O)Nc1cnccc1N1CCCC(N)C1 (stereo not shown) [Example 187, 3-amino-N-[4-(3-aminopiperidin-1-yl)pyridin-3-yl]pyrazine-2-carboxamide] | – | < 1 | < 1 | – | < 1000 | > 25 | 1 to 5 | – | – | – | 1 to 5 | < 1
2 | CC(C)NC(=O)c1ccc(F)c(-c2ccc(N)c(C(=O)Nc3cnccc3N3CCC[C@H](N)C3)n2)c1 [Example 317, 3-amino-6-(2-fluoro-5-iso-propylcarbamoyl-phenyl)-pyridine-2-carboxylic acid ((S)-3-amino-3,4,5,6-tetra-hydro-2H-[1,4′]bipyridinyl-3′-yl)-amide] | < 1 | < 1 | < 1 | – | – | – | > 10 | 1 to 5 | < 1 | – | 1 to 5 | –
3 | CN(C)CCN(C)c1ccncc1NC(=O)c1nc(Br)cnc1N [Example 124, 3-amino-6-bromo-N-(4-{[2-(dimethylamino)ethyl]-(methyl)amino}pyridin-3-yl)pyrazine-2-carboxamide] | 1 to 10 | > 25 | 1 to 10 | – | 10000 to 25000 | – | – | – | – | 10000 to 25000 | – | –
4 | CN(C)C(=O)c1ccc(F)c(-c2ccc(N)c(C(=O)Nc3cnccc3N3CCC[C@H](N)C3)n2)c1 [Example 328, 3-amino-6-(5-dimethyl-carbamoyl-2-fluoro-phenyl)-pyridine-2-carboxylic acid ((S)-3-amino-3,4,5,6-tetra-hydro-2H-[1,4′]bipyridinyl-3′-yl)-amide] | < 1 | < 1 | < 1 | – | – | – | – | < 1 | < 1 | – | 1 to 5 | –

Now from value to compound, other results behind:

Row | IC50 (Pim1 kinase) [µM] | IC50 (Pim2 kinase) [µM] | IC50 (Pim3 kinase) [µM] | EC50 (MV4-11 cells; [4]) [µM] | IC50 [1] [nM] | IC50 (KDR kinase) [µM] | EC50 (PC3 cells) [µM] | EC50 [2] [µM] | EC50 [3] [µM] | IC50 (Flt3 kinase) [nM] | SMILES | EC50 (HEL 92.1.7 cells) [µM] | EC50 (MV4-11 cells; MV4-11, read-out: EC50 (μM) MV-4-11) [µM]
5 | < 1 | < 1 | < 1 | < 1 | 1000 to 10000 | 10 to 25 | – | – | – | – | Nc1ccc(-c2ccccc2Cl)nc1C(=O)Nc1cnccc1N1CCC[C@H](N)C1 [Example 433, 3-amino-6-(2-chloro-phenyl)-pyridine-2-carboxylic acid ((S)-3-amino-3,4,5,6-tetrahydro-2H-[1,4′]bipyridinyl-3′-yl)-amide] | 1 to 5 | –
6 | – | – | – | < 1 | – | – | – | – | – | – | Nc1ccc(-c2ccccc2F)nc1C(=O)Nc1cnccc1N1CCC[C@H](N)C1 [Example 434, 3-amino-6-(2-fluoro-phenyl)-pyridine-2-carboxylic acid ((S)-3-amino-3,4,5,6-tetrahydro-2H-[1,4′]bipyridinyl-3′-yl)-amide] | 1 to 5 | –
7 | < 1 | < 1 | < 1 | – | 1000 to 10000 | 10 to 25 | 5 to 10 | < 1 | < 1 | – | Nc1ccc(-c2c(F)cccc2F)nc1C(=O)Nc1cnccc1N1CCC[C@H](N)C1 [Example 425, 3-amino-6-(2,6-difluoro-phenyl)-pyridine-2-carboxylic acid ((S)-3-amino-3,4,5,6-tetrahydro-2H-[1,4′]bipyridinyl-3′-yl)-amide] | < 1 | –
8 | < 1 | < 1 | < 1 | – | – | 10 to 25 | – | 1 to 5 | 5 to 10 | – | N[C@H]1CCCN(c2ccncc2NC(=O)c2cccc(-c3c(F)cccc3F)n2)C1 [Example 454, 6-(2,6-Difluoro-phenyl)-pyridine-2-carboxylic acid (3-amino-3,4,5,6-tetrahydro-2H-[1,4′]bi-pyridinyl-3′-yl)-amide] | – | –
